Data on 31 molecules can be found in patent US7709478B2, “Acylated 6,7,8,9-tetrahydro-5H-benzocycloheptenyl amines and their use as pharmaceutical agents” (sanofi-aventis Deutschland GmbH, priority 2001, dated 2010).

The assay deals with eNOS promoter. The assay is described as follows: Activation of eNOS transcription (eNOS promoter-luciferase reporter gene assay). The conditions noted are these: 18 h incubation; for EC50: EC50 of transcription induction ratio vs compound concentration, determined graphically, human endothelial cell line stably transfected with eNOS promoter-luciferase construct; for TIR(max) / maximal fold induction: maximum transcription induction ratio (luciferase activity with compound / solvent alone), human endothelial cell line with eNOS promoter-luciferase construct; for maximal fold induction: read-out: TIR(max). Type of assay: cell-based, human. The protocol: Measurement of Activation of eNOS Transcription
Activation of eNOS transcription was measured as described in detail in Li et al. “Activation of protein kinase C alpha and/or epsilon enhances transcription of the human endothelial nitric oxide synthase gene”, Mol. Pharmacol. 1998; 53: 630-637.
Briefly, a 3.5 kB long fragment 5′ of the starting codon of the eNOS gene was cloned, sequenced and cloned in firefly luciferase expression plasmids to monitor activation of the eNOS promoter by reporter gene activity. A human endothelial cell line stable transfected and expressing this promoter-reporter construct was used for compound testing. Cells were incubated for 18 h with compounds.
All compounds were dissolved in sterile DMSO. A final concentration of 0.5% DMSO in complete medium was allowed. Induction of reporter gene expression in these cells was measured using a standard luciferase assay system (Promega, Cat. No E150) according to the manufacturer's instructions. Luciferase induction in cells incubated with compounds were compared to those incubated with solvent alone. The ratio of both activities (transcription induction ratio, TIR) was plotted as a function of compound concentration. Typically, TIR values started at low concentrations at a ratio of 1, indicating no compound effect, and extended up to a maximum TIR value TIR(max) which indicates the increase of the eNOS transcription. EC50 values of transcription induction ratios as a function of compound concentration were determined graphically.
In general terms: Reporter assays use an easily measured gene product as a stand-in for the process of interest.

The EC50 is the concentration needed to bring the measured effect to its halfway point.

Each structure is given as a SMILES string. Structures can show the parent of a compound that is named as a salt. A value given as a limit tells only on which side of the number the result lay.

Turning to `CCOc1ccc(C(=O)NC2CCCc3ccccc3C2)cc1` (centres unmarked) [Compound 5, 4-ETHOXY-N-(6,7,8,9-TETRARYDRO-5H-BENZOCYCLOHEPTEN-6-YL)-BENZAMIDE], the EC50 is < 80 nM and the “TIR(max)” value is 3.0.
On to `O=C(NC1CCCc2ccccc2C1)c1ccc(F)cc1F` (centres unmarked) [Compound 6, 2,4-DIFLUORO-N-(6,7,8,9-TETRAHYDRO-5H-BENZOCYCLOHEPTEN-6-YL)-BENZAMIDE], for which the EC50 is < 80 nM and the maximal fold induction amounted to 3.
For the molecule `O=C(NC1CCCc2ccccc2C1)c1ccc(Cl)nc1` (centres unmarked) [Compound 10, 6-CHLORO-N-(6,7,8,9-TETRAHYDRO-5H-BENZOCYCLOHEPTEN-6-YL)-NICOTINAMIDE], the EC50 is 256 nM and the maximal fold induction is 3.
For `Cc1ccc(C(=O)NC2CCCc3ccccc3C2)c(O)n1` (centres unmarked) [Compound 11, 2-HYDROXY-6-METHYL-N-(6,7,8,9-TETRAHYDRO-5H-BENZOCYCLOHEPTEN-6-YL)-NICOTINAMIDE] the same measures were 2100 nM and 2.
The like results for `O=C(NC1CCCc2ccccc2C1)c1cccc2[nH]ccc12` (centres unmarked) [Compound 12, 1H—INDOLE-4-CARBOXYLIC ACID (6,7,8,9-TETRAHYDRO-5H-BENZOCYCLOHEPTEN-6-YL)-AMIDE] were, in that order, 136 nM and 3.
Regarding `O=C(NC1CCCc2ccccc2C1)c1ccc2[nH]nnc2c1` (centres unmarked) [Compound 13, 1H-BENZOTRIAZOLE-5-CARBOXYLIC ACID (6,7,8,9-TETRAHYDRO-5H-BENZOCYCLOHEPTEN-6-YL)-AMIDE], the EC50 stood at 8800 nM and the maximal fold induction was 2.
The like results for `O=C(NC1CCCc2ccccc2C1)c1cnn(-c2ccc(Cl)cc2)c1C(F)(F)F` (centres unmarked) [Compound 14, 1-(4-CHLORO-PHENYL)-5-TRIFLUOROMETHYL-1H-PYRAZOLE-4-CARBOXYLIC ACID (6,7,8,9-TETRAHYDRO-5H-BENZOCYCLOHEPTEN-6-YL)-AMIDE] were, in that order, 1200 nM and 1.7.
In the case of `COc1ccc(C(=O)NC2CCCc3ccccc3C2)c(OC)n1` (centres unmarked) [Compound 15, 2,6-DIMETHOXY-N-(6,7,8,9-TETRAHYDRO-5H-BENZOCYCLOHEPTEN-6-YL)-NICOTINAMIDE], the EC50 was 779 nM and the maximal fold induction was found to be 3.1.
The like results for `Cc1ccc(C(=O)NC2CCCc3ccccc3C2)c(Cl)n1` (centres unmarked) [Compound 16, 2-CHLORO-6-METHYL-N-(6,7,8,9-TETRAHYDRO-5H-BENZOCYCLOHEPTEN-6-YL)-NICOTINAMIDE] were, in that order, 38 nM and 2.9.
The like results for `O=C(NC1CCCc2ccccc2C1)c1ccc2cc[nH]c2c1` (centres unmarked) [Compound 20, 1H—INDOLE-6-CARBOXYLIC ACID (6,7,8,9-TETRAHYDRO-5H-BENZOCYCLOHEPTEN-6-YL)-AMIDE] were, in that order, 16 nM and 3.1.
The like results for `N#Cc1ccc(C(=O)NC2CCCc3ccccc3C2)cn1` (centres unmarked) [Compound 21, 6-CYANO-N-(6,7,8,9-TETRAHYDRO-5H-BENZOCYCLOHEPTEN-6-YL)-NICOTINAMIDE] were, in that order, 8200 nM and 2.6.
Take `O=C(NC1CCCc2ccccc2C1)c1cccc2snnc12` (centres unmarked) [Compound 22, BENZO[1,2,3]THIADIAZOLE-4-CARBOXYLIC ACID-N-(6,7,8,9-TETRAHYDRO-5H-BENZOCYCLOHEPTEN-6-YL)-AMIDE]: the EC50 was determined as 83 nM and the maximal fold induction is 3.1.
For `Nc1ncccc1C(=O)NC1CCCc2ccccc2C1` (centres unmarked) [Compound 25, 2-AMINO-N-(6,7,8,9-TETRAHYDRO-5H-BENZOCYCLOHEPTEN-6-YL)-NICOTINAMIDE HYDROCHLORIDE], the EC50 was found to be 31 nM and the maximal fold induction turned out to be 3.1.
In the case of `Cc1c(C(=O)NC2CCCc3ccccc3C2)cnn1-c1ccccc1` (centres unmarked) [Compound 30, 5-METHYL-1-PHENYL-1H-PYRAZOLE-4-CARBOXYLIC ACID (6,7,8,9-TETRARYDRO-5H-BENZOCYCLOHEPTEN-6-YL)-AMIDE], the EC50 was found to be 20 nM and the “TIR(max)” value amounted to 3.5.
Turning to `Cc1nc2cc(C(=O)N[C@H]3CCCc4ccccc4C3)ccc2[nH]1` [Compound 36, (S)-2-METHYL-1H-BENZOIMIDAZOLE-5-CARBOXYLIC ACID (6,7,8,9-TETRAHYDRO-5H-BENZOCYCLOHEPTEN-6-YL)-AMIDE HYDROCHLORIDE], the EC50 came out at 50 nM and the maximal fold induction is 3.3.
As for `Cc1cc(C)c(C(=O)NC2CCCc3ccccc3C2)c(N)n1` (centres unmarked) [Compound 56, 2-AMINO-4,6-DIMETHYL-N-(6,7,8 9-TETRAHYDRO-5H-BENZOCYCLOHEPTEN-6-YL)-NICOTINAMIDE], the EC50 was found to be 168 nM and the “TIR(max)” value amounted to 3.
For the molecule `Cc1nc(C)c(C(=O)NC2CCCc3ccccc3C2)o1` (centres unmarked) [Compound 58, 2,4-DIMETHYL-OXAZOLE-5-CARBOXYLIC ACID (6,7,8,9-TETRAHYDRO-5H-BENZOCYCLOHEPTEN-6-YL)-AMIDE], the EC50 is 19000 nM and the maximal fold induction turned out to be 2.5.
For `Cc1cnc(C(=O)NC2CCCc3ccccc3C2)c(N)n1` (centres unmarked) [Compound 59, 3-AMINO-5-METHYL-PYRAZINE-2-CARBOXYLIC ACID (6,7,8,9-TETRAHYDRO-5H-BENZOCYCLOHEPTEN-6-YL)-AMIDE] the same measures were 19 nM and 3.2.
The like results for `Nc1c(C(=O)NC2CCCc3ccccc3C2)cnn1-c1ccccc1` (centres unmarked) [Compound 61, 5-AMINO-1-PHENYL-1H-PYRAZOLE-4-CARBOXYLIC ACID (6,7,8,9-TETRAHYDRO-5H-BENZOCYCLOHEPTEN-6-YL)-AMIDE] were, in that order, 2300 nM and 3.4.
The like results for `O=C(NC1CCCc2ccccc2C1)c1cnc(N2CCOCC2)nc1` (centres unmarked) [Compound 64, 2-MORPHOLIN-4-YL-PYRIMIDINE-5-CARBOXYLIC ACID (6,7,8,9-TETRAHYDRO-5H-BENZOCYCLOHEPTEN-6-YL)-AMIDE] were, in that order, 16000 nM and 3.1.
Turning to `O=C(NC1CCCc2ccccc2C1)c1ccc(Cl)nc1Cl` (centres unmarked) [Compound 70, 2,6-DICHLORO-N-(6,7,8,9-TETRAHYDRO-5H-BENZOCYCLOHEPTEN-6-YL)-NICOTINAMIDE], the half-maximal effective concentration (EC50) turned out to be 2000 nM and the maximal fold induction was found to be 3.1.
For `Cc1nc(N)c(C(=O)NC2CCCc3ccccc3C2)nc1C` (centres unmarked) [Compound 72, 3-AMINO-5,6-DIMETHYL-PYRAZINE-2-CARBOXYLIC ACID (6,7,8,9-TETRAHYDRO-5H-BENZOCYCLOHEPTEN-6-YL)-AMIDE], the EC50 was 71 nM and the maximal fold induction worked out at 3.1.
For `CCSc1ncc(C(=O)NC2CCCc3ccccc3C2)c(N)n1` (centres unmarked) [Compound 74, 4-AMINO-2-ETHYLSULFANYL-PYRIMIDINE-5-CARBOXYLIC ACID (6,7,8,9-TETRAHYDRO-5H-BENZOCYCLOHEPTEN-6-YL)-AMIDE] the same measures were 34000 nM and 3.1.
With `CNc1cncc(C(=O)NC2CCCc3ccccc3C2)n1` (centres unmarked) [Compound 76, 6-METHYLAMINO-PYRAZINE-2-CARBOXYLIC ACID (6,7,8,9-TETRAHYDRO-5H-BENZOCYCLOHEPTEN-6-YL)-AMIDE], the EC50 was determined as 572 nM and the maximal fold induction came out at 3.1.
The like results for `CN(C)c1ccc(C(=O)NC2CCCc3ccccc3C2)cn1` (centres unmarked) [Compound 81, 6-DIMETHYLAMINO-N-(6,7,8,9-TETRAHYDRO-5H-BENZOCYCLOHEPTEN-6-YL)-NICOTINAMIDE] were, in that order, 53 nM and 3.3.
For the molecule `O=C(NC1CCCc2ccccc2C1)c1ccc(N2CCCC2)nc1` (centres unmarked) [Compound 82, 6-PYRROLIDIN-1-YL-N-(6,7,8,9-TETRARYDRO-5H-BENZOCYCLOHEPTEN-6-YL)-NICOTINAMIDE], the EC50 stood at 283 nM and the “TIR(max)” value came to 3.2.
For `O=C(NC1CCCc2ccccc2C1)c1cn2ccccc2n1` (centres unmarked) [Compound 85, IMIDAZO[1,2-A]PYRIDINE-2-CARBOXYLIC ACID (6,7,8,9-TETRAHYDRO-5H-BENZOCYCLOHEPTEN-6-YL)-AMIDE], the half-maximal effective concentration (EC50) amounted to 15000 nM and the maximal fold induction turned out to be 3.
For `Cc1cncc(C(=O)NC2CCCc3ccccc3C2)c1` (centres unmarked) [Compound 91, 5-METHYL-N-(6,7,8,9-TETRAHYDRO-5H-BENZOCYCLOHEPTEN-6-YL)-NICOTINAMIDE] the same measures were 2300 nM and 2.9.
For the molecule `Cc1cc(C(=O)NC2CCCc3ccccc3C2)c(C)n1-c1ccccc1` (centres unmarked) [Compound 96, 2,5-DIMETHYL-1-PHENYL-1H-PYRROLE-3-CARBOXYLIC ACID (6,7,8,9-TETRAHYDRO-5H-BENZOCYCLOHEPTEN-6-YL)-AMIDE], the concentration giving a half-maximal response (EC50) is 20 nM and the maximal fold induction was found to be 3.
The like results for `CS(=O)(=O)Nc1cccc(C(=O)NC2CCCc3ccccc3C2)c1` (centres unmarked) [Compound 97, 3-METHANESULFONYLAMINO-N-(6,7,8,9-TETRAHYDRO-5H-BENZOCYCLOHEPTEN-6-YL)-BENZAMIDE] were, in that order, 1000 nM and 2.5.
Regarding `CS(=O)(=O)Nc1cc(C(=O)NC2CCCc3ccccc3C2)ccc1Cl` (centres unmarked) [Compound 98, 4-CHLORO-3-METHANESULFONYLAMIINO-N-(6,7,8,9-TETRAHYDRO-5H-BENZOCYCLOHEPTEN-6-YL)-BENZAMIDE], the EC50 was found to be 574 nM and the “TIR(max)” value is recorded as 2.6.
